Laboratory results reported in EP1080165B1, “HYDROCARBON LIQUID FORMULATION” (MACFARLAN SMITH LIMITED, priority 1998, dated 1999).
Values belong to the molecule of their own block, whether it stands above or below them.

Columns and labels:
[1] = Evaluation of co-solvents for a clear stable formulation of denatonium benzoate in lamp oil; format: physicochemical; set-up: key to Assessment: Those combinations marked as "FAIL" were observed to exhibit turbidity and insufficient stability in the amount of denaturant introduced to the lamp oil; PASS: success in obtaining a clear stable formulation of the preferred denaturant; conditions: for Assessment: clear stable formulation of denatonium benzoate/"BITREX" in lamp oil, only the co-solvent varied
Description: The following Table I summarises the results of this evaluation stage, and in particular assesses the success in obtaining a clear stable formulation of the preferred denaturant (denatonium benzoate/ "BITREX"®) in a target commercial product to be denatured (lamp oil). […] In each case, the only critical variation lay in the selection of the co-solvent. Apart from the attempted use of rape seed oil, it is assumed that the co-solvent is essentially a single chemical entity.
(§1) As an illustrative example of procedure, one may prepare a 40ppm "BITREX®" doped lamp oil by simply stirring in a previously prepared 0.1% solution of "BITREX®" in the selected co-solvent TEXANOL® to a level of 4% (all amounts described herein are w/w). A similar procedure was found effective in denaturing, white spirit, dearomatised white spirit, and isoparaffin.

[2] = Denaturing of other liquid hydrocarbons with a BITREX solution in TEXANOL; format: physicochemical; conditions: 0.1% solution of BITREX in co-solvent stirred in; white spirit, dearomatised white spirit and isoparaffin
Description: as §1

[3] = Alkanol co-solvents enabling introduction of BITREX at the desired level; format: physicochemical; conditions: co-solvent for BITREX in liquid hydrocarbon
[4] = cited from earlier work
[5] = as low as; cited from earlier work

Molecule: CCCCC(CC)COC(=O)C(CC)CCCC (centres unmarked) [2-Ethylhexyl-2-ethylhexanoate]
Assessment [1]: FAIL

Molecule: 2,2,4-trimethylpentan-1,3-diol-monoisobutanoate
effective in denaturing [2]: effective
Assessment [1]: PASS
effectiveness in achieving the objective of the invention ([1]; denatonium benzoate in lamp oil, summary of Table I): highly effective

Molecule: CCCCCCCCO [1-octanol]
effective in enabling introduction of the preferred aversive agent "BITREX" at the desired level [3]: effective

Molecule: CC[N+](CC)(CC(=O)Nc1c(C)cccc1C)Cc1ccccc1 [denatonium benzoate, Denatonium benzoate]
solubility in apolar liquids [4]: extremely insoluble
concentration giving an acceptable level of aversive activity [5]: 10 ppm

Other lines, results leading:

Assessment [1]: FAIL
Molecule: CCCCCCCCCC(=O)OC(C)C [Isopropyldecanoate]

Assessment [1]: FAIL
Molecule: CCCCCCCCCCCC(=O)OCC(CC)CCCC (centres unmarked) [2-Ethylhexyllaurate]

Assessment [1]: FAIL
Molecule: CCCCCCCCCCCC(=O)OC(C)C [Isopropyllaurate]

effective in enabling introduction of the preferred aversive agent "BITREX" at the desired level [3]: effective
Molecule: CCCCCCCCCCCCCCCCO [1-hexadecanol]
